Source: ChEMBL document CHEMBL1201862, “PubChem BioAssay data set” (2004)
Activity calls are given as the source filed them.

How the values were obtained:
[1] = biological target: Ras and Rab interactor 1/Tyrosine-protein kinase ABL1 (Homo sapiens, UniProt P00519+Q13671); assay type: functional;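 note: biochemical TR-FRET dose-response test measuring inhibition of binding between Rin1 and Abl proteins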
[2] = biological target: 72 kDa type IV collagenase (Homo sapiens, UniProt P08253); assay: Dose Response validation of uHTS RPN11 inhibitor hits using a MMP-2 Fluorescence assay.; assay type: functional
72 kDa type IV collagenase, sequence (P08253 whole entry, the tested form may be a part): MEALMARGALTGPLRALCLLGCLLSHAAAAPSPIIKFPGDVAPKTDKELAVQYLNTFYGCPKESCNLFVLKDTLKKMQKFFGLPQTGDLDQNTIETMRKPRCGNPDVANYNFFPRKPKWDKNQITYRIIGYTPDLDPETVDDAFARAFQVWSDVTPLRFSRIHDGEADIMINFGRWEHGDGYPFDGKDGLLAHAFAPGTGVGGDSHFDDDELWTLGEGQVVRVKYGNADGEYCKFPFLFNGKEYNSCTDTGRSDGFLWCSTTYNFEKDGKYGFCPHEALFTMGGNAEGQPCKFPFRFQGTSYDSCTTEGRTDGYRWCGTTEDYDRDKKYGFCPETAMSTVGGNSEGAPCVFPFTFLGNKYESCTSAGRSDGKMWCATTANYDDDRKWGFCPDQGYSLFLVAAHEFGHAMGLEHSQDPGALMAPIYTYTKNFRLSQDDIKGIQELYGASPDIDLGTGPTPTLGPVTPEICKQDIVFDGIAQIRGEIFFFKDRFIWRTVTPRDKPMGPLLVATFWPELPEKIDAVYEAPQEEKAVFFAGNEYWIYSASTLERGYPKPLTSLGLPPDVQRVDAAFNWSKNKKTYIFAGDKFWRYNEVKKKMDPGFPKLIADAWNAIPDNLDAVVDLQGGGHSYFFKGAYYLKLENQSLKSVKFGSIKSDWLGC

[3] = biological target: T1, Carboxy-terminal domain RNA polymerase II polypeptide A small phosphatase 1 (Homo sapiens, UniProt Q9GZU7); assay: CTDSP1 inhibitors, concentration-response, biochemical, absorbance readout, ultra-high-throughput screen actives (AID 540297); assay type: functional
T1 sequence (Q9GZU7 whole entry): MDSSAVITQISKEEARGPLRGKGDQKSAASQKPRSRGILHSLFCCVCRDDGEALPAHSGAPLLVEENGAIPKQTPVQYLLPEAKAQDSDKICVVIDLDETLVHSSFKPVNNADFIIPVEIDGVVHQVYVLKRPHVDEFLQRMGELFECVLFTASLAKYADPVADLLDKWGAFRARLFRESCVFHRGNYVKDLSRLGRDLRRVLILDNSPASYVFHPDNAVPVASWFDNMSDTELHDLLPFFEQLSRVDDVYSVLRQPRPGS

[4] = biological target: 26S proteasome non-ATPase regulatory subunit 14 (Homo sapiens, UniProt O00487); assay: inhibition of proteasome subunit RPN11 – biochemical, fluorescence polarization, uHTS hits, confirmation (AID 602368); assay type: functional
26S proteasome non-ATPase regulatory subunit 14, sequence (O00487 whole entry): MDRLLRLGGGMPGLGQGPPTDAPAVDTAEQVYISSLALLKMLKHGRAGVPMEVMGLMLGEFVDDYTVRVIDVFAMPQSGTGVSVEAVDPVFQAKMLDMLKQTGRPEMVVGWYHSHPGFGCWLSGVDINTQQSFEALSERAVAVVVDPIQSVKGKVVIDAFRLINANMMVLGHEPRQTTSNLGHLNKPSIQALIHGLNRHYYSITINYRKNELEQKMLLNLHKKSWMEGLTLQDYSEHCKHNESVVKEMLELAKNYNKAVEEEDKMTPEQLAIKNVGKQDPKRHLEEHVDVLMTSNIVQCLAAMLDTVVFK

[5] = biological target: Prothrombin (Bos taurus, UniProt P00735); assay: thrombin protease inhibitors – biochemical, fluorescence polarization, uHTS hits, dose response (AID 602369); assay type: functional
[6] = NIH3T3 cell viability loss – ATP luminescence, mouse fibroblasts, counter-screen, dose response (AID 2010); assay type: functional, cell-based;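 note: cells exposed to compound for about 90 hours before reading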
[7] = biological target: Melanocortin receptor 4 (Homo sapiens, UniProt P32245); assay type: functional, cell-based;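 note: Cell-based assay with luminescence read-out, confirmatory dose-response testing for agonist activity of biased ligands at MC4R; human U2OS cells with tagged receptor and beta-arrestin; potency of agonists that increase receptor coupling to beta-arrestin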
Melanocortin receptor 4, sequence (P32245 whole entry): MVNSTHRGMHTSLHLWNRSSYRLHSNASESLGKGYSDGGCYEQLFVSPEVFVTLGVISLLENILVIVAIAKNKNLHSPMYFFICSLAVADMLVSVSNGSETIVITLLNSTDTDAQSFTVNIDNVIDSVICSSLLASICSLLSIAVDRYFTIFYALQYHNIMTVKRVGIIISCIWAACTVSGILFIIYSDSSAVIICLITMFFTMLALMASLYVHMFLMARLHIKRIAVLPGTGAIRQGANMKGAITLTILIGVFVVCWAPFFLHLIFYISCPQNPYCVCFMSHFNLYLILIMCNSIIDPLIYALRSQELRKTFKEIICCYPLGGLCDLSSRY

[8] = reduction of Shn3 3'UTR-driven luciferase in osteoblasts – cell-based, Clone20 osteoblasts, firefly luciferase, cherry-picked, dose response (AID 624132); assay type: functional;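 note: firefly luciferase luminescence from reporter carrying the Shn3 3'UTR in osteoblasts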
[9] = loss of viability in HepG2 cells – cell-based, CellTiter-Glo, cherry-picked, cytotoxicity control for Shn3 inhibitor project, dose response (AID 624134); assay type: functional
[10] = non-specific 3'UTR reporter inhibition in Clone20-Shn3RL – cell-based, Renilla luciferase, cherry-picked, counter-screen for Shn3 inhibitor project, dose response (AID 624133); assay type: functional
[11] = Trypanosoma cruzi growth suppression in host cells – NIH3T3 host cells, beta-gal luminescence, confirmation (AID 2044); assay type: functional, cell-based;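 note: intracellular parasites grown in NIH/3T3 mouse fibroblasts as host cells; luminescent beta-galactosidase reporter signal from transgenic T. cruzi replicating inside host cells; inhibitors lower the luminescence signal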
[12] = cells
[13] = biological target: T2, Polyadenylate-binding protein 1 (Homo sapiens, UniProt P11940); assay: MLLE domain peptide-binding blockers, IC50 – biochemical, fluorescence polarization, FITC-PAM2 peptide, dose response (AID 602259); assay type: functional; conditions: read-out: IC50_Mean
T2 sequence (P11940 whole entry, the tested form may be a part): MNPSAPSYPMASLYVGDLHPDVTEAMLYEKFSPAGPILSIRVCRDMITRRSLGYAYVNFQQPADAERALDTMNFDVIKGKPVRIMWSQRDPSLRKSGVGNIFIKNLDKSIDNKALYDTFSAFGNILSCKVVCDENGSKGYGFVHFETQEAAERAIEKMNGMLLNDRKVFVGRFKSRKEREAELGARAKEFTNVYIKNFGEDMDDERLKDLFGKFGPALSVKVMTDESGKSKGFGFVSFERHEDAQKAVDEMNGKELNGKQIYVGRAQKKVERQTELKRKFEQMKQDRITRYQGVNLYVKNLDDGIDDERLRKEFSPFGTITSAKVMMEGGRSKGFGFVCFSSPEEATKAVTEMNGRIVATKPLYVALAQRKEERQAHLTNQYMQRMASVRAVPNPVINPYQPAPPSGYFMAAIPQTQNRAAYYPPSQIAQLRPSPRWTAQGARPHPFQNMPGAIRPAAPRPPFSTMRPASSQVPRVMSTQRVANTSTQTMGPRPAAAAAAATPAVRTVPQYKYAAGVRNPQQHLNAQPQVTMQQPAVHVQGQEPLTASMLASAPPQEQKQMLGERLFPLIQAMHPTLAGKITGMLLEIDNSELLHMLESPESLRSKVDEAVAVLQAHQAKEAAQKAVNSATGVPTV

[14] = biological target: T2, Polyadenylate-binding protein 1; assay: MLLE binding blockers, Cy5 peptide tracer – biochemical, fluorescence polarization, Cy5-PAM2 peptide, secondary, miRNA deadenylation inhibitor project, dose response (AID 602260); assay type: functional; conditions: read-out: IC50_Mean
[15] = biological target: T3, Endoribonuclease toxin MazF (Escherichia coli K-12, UniProt P0AE70); assay: activation of MazEF endoribonuclease cleavage – biochemical, fluorescence, single-stranded RNA substrate, uHTS hits, dose response (AID 588481); assay type: functional
T3 sequence (P0AE70 whole entry): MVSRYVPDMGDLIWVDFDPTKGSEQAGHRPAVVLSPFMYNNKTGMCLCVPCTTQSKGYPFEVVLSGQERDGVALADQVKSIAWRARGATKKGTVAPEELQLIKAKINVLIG

[16] = biological target: T4, Corticotropin-releasing factor receptor 2/Corticotropin-releasing factor-binding protein (Homo sapiens, UniProt P24387+Q13324); assay: activators of CRF receptor 2 with binding protein – uHTS hits, confirmation (AID 602473); assay type: functional; conditions: read-out: EC50_Mean
T4 sequence (Q13324 whole entry): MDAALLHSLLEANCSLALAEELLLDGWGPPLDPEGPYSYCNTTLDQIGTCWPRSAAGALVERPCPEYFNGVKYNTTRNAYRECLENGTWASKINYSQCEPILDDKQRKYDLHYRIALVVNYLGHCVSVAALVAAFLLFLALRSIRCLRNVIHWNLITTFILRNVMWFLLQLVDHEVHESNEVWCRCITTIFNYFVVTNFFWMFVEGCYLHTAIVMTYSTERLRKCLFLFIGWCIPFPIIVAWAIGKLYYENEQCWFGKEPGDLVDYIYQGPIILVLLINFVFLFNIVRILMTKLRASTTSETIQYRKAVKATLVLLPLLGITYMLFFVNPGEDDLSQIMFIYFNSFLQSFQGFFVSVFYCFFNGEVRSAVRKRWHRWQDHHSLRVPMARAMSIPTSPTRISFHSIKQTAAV
T4 sequence (P24387 whole entry): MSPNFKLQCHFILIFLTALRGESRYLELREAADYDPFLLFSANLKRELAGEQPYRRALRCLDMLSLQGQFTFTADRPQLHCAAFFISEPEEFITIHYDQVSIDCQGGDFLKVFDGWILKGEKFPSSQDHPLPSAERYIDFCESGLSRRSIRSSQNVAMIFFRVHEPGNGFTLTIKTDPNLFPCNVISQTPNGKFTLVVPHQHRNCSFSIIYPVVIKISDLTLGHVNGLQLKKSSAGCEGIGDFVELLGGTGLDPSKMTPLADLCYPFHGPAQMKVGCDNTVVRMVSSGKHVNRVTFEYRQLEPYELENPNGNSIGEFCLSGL

[17] = biological target: T3, Endoribonuclease toxin MazF; assay: substrate-only fluorescence increase artefacts – biochemical, single-stranded RNase substrate, counter-screen for MazEF activator project, dose response (AID 588502); assay type: functional
[18] = biological target: T5, Sentrin-specific protease 8 (Homo sapiens, UniProt Q96LD8); assay: inhibition of human SENP8 cleavage activity – biochemical, luminescence, SAR follow-up (AID 504501); assay type: functional
T5 sequence (Q96LD8 whole entry): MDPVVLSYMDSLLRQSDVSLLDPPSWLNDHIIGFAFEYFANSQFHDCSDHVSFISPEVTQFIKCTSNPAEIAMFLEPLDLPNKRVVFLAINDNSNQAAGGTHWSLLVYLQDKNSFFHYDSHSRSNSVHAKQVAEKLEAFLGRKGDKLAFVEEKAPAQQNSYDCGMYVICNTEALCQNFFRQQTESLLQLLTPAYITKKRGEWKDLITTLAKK

[19] = biological target: T6, Caspase-3 (Homo sapiens, UniProt P42574); assay: SAR Analysis of small molecule inhibitors of Sentrin-specific proteases (SENPs) using a Caspase-3 Selectivity assay. [Related pubchem assays (depositor defined):AID2540, AID2599, AID434973, AID489001]; assay type: functional
T6 sequence (P42574 whole entry): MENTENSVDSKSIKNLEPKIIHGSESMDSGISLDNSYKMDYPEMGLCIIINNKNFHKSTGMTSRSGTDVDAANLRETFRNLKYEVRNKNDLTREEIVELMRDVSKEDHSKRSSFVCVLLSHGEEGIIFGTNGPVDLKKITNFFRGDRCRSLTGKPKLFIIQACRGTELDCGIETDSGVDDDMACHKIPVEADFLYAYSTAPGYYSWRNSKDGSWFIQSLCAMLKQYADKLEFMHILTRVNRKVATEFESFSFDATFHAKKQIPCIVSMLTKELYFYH

[20] = biological target: T7, Sentrin-specific protease 7 (Homo sapiens, UniProt Q9BQF6); assay: inhibition of human SENP7 cleavage activity – biochemical, luminescence, SAR follow-up (AID 504497); assay type: functional
T7 sequence (Q9BQF6 whole entry): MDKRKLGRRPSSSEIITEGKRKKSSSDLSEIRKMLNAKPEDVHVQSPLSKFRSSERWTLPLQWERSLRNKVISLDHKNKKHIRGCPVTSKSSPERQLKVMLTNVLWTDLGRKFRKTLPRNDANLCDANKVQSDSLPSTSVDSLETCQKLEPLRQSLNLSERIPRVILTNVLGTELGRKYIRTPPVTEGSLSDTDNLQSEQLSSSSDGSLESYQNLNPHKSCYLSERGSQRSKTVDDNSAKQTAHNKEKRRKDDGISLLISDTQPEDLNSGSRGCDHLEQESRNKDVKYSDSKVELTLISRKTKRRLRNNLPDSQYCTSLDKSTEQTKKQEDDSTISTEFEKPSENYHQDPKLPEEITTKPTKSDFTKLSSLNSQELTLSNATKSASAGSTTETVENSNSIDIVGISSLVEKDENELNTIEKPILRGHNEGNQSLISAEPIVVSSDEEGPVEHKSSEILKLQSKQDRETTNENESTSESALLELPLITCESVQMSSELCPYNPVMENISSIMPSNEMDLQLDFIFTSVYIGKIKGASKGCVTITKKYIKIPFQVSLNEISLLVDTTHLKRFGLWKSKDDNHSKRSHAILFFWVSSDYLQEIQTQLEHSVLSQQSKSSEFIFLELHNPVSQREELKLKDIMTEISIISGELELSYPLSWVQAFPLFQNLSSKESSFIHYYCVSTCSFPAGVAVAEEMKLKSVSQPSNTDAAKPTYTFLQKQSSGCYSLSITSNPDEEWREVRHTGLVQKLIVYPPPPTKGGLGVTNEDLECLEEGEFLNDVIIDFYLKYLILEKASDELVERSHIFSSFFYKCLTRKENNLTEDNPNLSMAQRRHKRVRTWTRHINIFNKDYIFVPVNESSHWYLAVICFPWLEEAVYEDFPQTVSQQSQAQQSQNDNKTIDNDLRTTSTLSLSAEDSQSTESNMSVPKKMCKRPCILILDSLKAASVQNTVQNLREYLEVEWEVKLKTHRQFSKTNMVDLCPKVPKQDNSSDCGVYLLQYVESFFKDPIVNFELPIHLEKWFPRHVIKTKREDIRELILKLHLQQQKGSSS

[21] = biological target: T8, Sentrin-specific protease 6 (Homo sapiens, UniProt Q9GZR1); assay: SAR Analysis of small molecule inhibitors of Sentrin-specific protease 6 (SENP6) using a Luminescent assay. [Related pubchem assays (depositor defined):AID2582, AID2599]; assay type: functional
T8 sequence (Q9GZR1 whole entry): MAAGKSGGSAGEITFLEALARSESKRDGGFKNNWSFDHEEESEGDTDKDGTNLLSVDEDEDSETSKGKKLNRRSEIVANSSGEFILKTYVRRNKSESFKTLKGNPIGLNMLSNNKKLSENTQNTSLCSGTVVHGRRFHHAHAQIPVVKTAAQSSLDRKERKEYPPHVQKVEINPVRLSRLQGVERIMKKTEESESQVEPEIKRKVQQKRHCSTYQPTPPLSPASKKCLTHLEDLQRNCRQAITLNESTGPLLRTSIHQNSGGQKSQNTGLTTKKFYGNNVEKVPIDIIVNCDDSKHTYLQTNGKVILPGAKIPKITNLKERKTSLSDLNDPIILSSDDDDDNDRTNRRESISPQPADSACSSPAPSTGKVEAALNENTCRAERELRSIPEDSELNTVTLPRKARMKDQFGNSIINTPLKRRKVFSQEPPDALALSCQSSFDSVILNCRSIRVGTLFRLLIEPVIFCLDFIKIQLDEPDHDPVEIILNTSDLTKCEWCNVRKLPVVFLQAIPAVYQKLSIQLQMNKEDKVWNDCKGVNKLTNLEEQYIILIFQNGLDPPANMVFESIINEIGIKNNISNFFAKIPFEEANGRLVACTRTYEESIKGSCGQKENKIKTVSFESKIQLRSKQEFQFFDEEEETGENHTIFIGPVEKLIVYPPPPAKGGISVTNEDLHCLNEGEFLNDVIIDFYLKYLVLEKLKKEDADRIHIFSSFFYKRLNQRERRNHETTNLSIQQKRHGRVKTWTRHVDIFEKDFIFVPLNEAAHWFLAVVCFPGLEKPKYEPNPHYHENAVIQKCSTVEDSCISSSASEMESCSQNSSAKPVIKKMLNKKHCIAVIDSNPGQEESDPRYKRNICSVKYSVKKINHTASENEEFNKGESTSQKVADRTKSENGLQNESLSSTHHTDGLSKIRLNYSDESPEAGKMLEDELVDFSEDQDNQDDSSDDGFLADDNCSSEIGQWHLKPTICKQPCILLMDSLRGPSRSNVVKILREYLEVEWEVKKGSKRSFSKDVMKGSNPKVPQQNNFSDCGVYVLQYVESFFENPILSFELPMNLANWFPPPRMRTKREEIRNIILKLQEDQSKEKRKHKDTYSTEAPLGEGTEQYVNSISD

Ras and Rab interactor 1/Tyrosine-protein kinase ABL1, sequence (P00519 whole entry): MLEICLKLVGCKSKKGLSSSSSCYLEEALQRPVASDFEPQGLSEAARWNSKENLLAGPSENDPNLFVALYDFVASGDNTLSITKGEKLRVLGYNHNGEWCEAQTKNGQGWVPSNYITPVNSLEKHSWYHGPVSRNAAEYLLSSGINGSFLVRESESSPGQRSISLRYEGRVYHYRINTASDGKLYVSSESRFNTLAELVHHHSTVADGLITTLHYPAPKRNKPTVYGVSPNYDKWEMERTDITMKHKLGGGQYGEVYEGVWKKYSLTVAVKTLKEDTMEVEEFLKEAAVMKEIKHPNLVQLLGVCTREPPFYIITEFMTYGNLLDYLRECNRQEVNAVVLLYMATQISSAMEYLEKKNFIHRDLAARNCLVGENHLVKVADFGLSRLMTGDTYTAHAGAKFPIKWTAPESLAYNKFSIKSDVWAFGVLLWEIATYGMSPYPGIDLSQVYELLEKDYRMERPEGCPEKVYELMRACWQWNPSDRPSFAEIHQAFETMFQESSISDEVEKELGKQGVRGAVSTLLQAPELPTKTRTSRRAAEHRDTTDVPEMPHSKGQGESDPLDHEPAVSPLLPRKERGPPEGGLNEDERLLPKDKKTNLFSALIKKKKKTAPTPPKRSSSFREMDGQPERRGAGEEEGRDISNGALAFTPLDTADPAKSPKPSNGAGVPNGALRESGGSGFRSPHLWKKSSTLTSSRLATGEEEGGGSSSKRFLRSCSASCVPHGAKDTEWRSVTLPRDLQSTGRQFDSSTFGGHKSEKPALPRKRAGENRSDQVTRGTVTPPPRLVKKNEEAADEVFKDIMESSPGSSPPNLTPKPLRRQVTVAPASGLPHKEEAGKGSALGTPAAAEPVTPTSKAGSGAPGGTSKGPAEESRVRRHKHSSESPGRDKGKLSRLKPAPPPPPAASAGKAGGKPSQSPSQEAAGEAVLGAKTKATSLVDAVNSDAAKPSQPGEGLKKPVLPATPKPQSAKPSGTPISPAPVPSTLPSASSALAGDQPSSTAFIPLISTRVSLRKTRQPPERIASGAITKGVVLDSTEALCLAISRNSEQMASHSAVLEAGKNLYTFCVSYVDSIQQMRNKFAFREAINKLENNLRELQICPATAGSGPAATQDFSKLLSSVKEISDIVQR
Ras and Rab interactor 1/Tyrosine-protein kinase ABL1, sequence (Q13671 whole entry): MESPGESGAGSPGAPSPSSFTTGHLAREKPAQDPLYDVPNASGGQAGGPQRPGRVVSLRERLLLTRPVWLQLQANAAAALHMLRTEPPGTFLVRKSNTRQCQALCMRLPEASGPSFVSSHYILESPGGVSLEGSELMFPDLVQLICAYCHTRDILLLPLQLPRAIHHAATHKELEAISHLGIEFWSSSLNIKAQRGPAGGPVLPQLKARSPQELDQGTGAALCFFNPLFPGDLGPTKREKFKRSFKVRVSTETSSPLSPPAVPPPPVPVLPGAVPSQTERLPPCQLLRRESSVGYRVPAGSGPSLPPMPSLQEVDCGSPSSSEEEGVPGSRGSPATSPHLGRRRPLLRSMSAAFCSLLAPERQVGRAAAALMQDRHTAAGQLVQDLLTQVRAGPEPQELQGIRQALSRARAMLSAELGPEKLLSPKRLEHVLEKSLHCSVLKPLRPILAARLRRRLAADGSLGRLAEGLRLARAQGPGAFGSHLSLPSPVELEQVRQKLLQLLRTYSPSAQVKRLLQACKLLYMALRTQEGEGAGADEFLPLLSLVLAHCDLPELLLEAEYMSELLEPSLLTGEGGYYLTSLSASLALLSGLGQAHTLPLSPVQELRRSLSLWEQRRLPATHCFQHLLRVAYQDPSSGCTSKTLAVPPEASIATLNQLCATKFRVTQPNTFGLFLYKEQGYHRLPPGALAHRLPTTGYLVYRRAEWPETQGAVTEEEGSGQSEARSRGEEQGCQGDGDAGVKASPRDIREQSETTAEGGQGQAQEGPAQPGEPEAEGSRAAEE

CC(=O)Nc1cc2c(nc1C)nc(C)n2Cc1ccc(Br)cc1
IC50 [1]: 15.5 µM (inactive)

Cc1ccc(NC(=O)CCc2nc(O)c3c4c(sc3n2)CCCC4)nc1
IC50 [2]: > 100 µM (inactive)
IC50 [3]: 5.1 µM (active)
IC50 [4]: 23.1 µM (active)
IC50 [5]: 55 µM (active)

COc1ccc(CNCCc2ccc(Cl)cc2)cc1OCc1ccccc1
EC50 [6]: > 60 µM (not active)
EC50 [7]: > 9.91 µM (active)
AC50 [8]: 5.59 µM (active)
AC50 [9]: > 70 µM (inactive)
AC50 [10]: 11.9 µM (active)
EC50 [11]: < 0.1 µM (active)
EC50 [12]: 0.114 µM (active)

CCCCn1c2ccc(F)cc2c2nnc(SCCN3CCOCC3)nc21
IC50 [13]: > 66 µM (inactive)
IC50 [14]: > 66 µM (inactive)

O=[N+]([O-])c1ccc(-c2cn3nc(-c4ccccc4)c(-c4ccccc4)nc3n2)cc1
EC50 [15]: > 99 µM (inactive)
EC50 [16]: > 53 µM (inactive)
EC50 [17]: > 99 µM (inactive)

O=C(Nc1ccccc1N1CCN(C(=O)c2ccc(Cl)cc2)CC1)c1cccnc1
IC50 [1]: 16.4 µM (inactive)

Cc1nc(SCc2nc3cc(Br)ccc3[nH]2)c2oc3ccccc3c2n1
IC50 [2]: > 100 µM (inactive)
IC50 [4]: 50 µM (active)
IC50 [5]: 40 µM (active)

CC(C)(C)CC(=O)Nc1ccc(-c2nc3cc(Cl)ccc3o2)cc1
IC50 [18]: > 99 µM (inactive)
IC50 [19]: > 99 µM (inactive)
IC50 [20]: > 99 µM (inactive)
IC50 [21]: > 99 µM (inactive)

CC(=O)Nc1ccc2nc(-c3ccccc3)oc2c1
IC50 [18]: 49.9 µM (active)
IC50 [19]: 14.2 µM (active)
IC50 [20]: 11.6 µM (active)
IC50 [21]: 46.5 µM (active)
